Assay results published in patent publication US20230372337A1, “Combination Therapy Comprising an AXL Inhibitor” (BERGENBIO ASA, priority 2020, published 2023).
“And” between values parts separate entries of the source, which are not always exact repeats. Identical values can stand only once.

What was measured:
[1] = test system: 4T1 mammary carcinoma cells; experiment: Metastasis, tumor weight and spleen weight post sacrifice, 4T1 model (Example 1); assay type: in vivo, BALB/c mice; conditions: for Lung macro metastasis: count per animal (A1-A15) after sacrifice, 10+ = massive lung metastasis; for Average spleen weight / Average tumor weight: post sacrifice, average of each group
Experimental: Spleens were weighed and inspected for macroscopic metastasis and cut in half along the long axis. Half of the spleen was snap frozen, with the other half fixed in 4% formalin for 24 hours at room temperature and stored in 70% ethanol at 4° C. until embedding in paraffin.
Livers were inspected for macroscopic metastasis and fixed in 4% formalin for 24 hours at room temperature and stored in 70% ethanol at 4° C. until embedding in paraffin.
Lungs were inspected for macroscopic metastasis and fixed in 4% formalin for 24 hours at room temperature and stored in 70% ethanol at 4° C. until embedding in paraffin.
Tumors were weighed and cut in half along the long axis, one half was snap frozen in liquid nitrogen in 2 cryotubes per tumor, while the other half was fixed in 4% formalin for 24 hours at room temperature and stored in 70% ethanol at 4° C. until embedding in paraffin.

[2] = test system: Type I IFN related genes; experiment: RT2 Profiler PCR Array Mouse Type I Interferon Response on 4T1 tumors (Example 1 mechanistic study); assay type: in vivo, BALB/c mice; conditions: 4T1 tumors day 19; one animal per group compared to one of the controls
Experimental: RNA was extracted from snap frozen tumors using the RNEasy Microarray Tissue Mini kit from Qiagen following the manufacturer's instructions. As tumors contained Doxorubicin and powderizing them could expose personnel to harmful substances, the RNA was extracted in a closed system using the GentleMACS dissociator and M Tubes. Purity and concentration of RNA was measured using Nanodrop. cDNA was synthesized from RNA using the RT2 First Strand kit (Qiagen) according to the manufacturer's instructions. cDNA was mixed with RT2 SYBR Green Mastermix (Qiagen) and loaded into RT^2 Profiler™ PCR Array Mouse Type I Interferon Response, to analyze the expression of the 84 genes listed in Table 2. The plates were analysed using a Light Cycler 480 (Roche) and data were analysed using the Qiagen Data Analysis Centre and Graph Pad (Prism).
16 animals were used in the mechanistic study and were sacrificed day 19 post implantation, 3 days after Doxorubicin injection. […] The 4 animals from group A (no treatment) were used as controls. The fold changes of 4 animals of group B (Bemcentinib), group F (Doxorubicin) and group H (Bemcentinib+Doxorubicin) are expressed as compared to the control animals (group A).

[3] = test system: global gene expression; experiment: RNA sequencing of 4T1 tumors 72 hours after doxorubicin i.t. (Example 2); assay type: in vivo, Balb/c mice
Experimental: FASTQ files were generated and quality controlled by the Genomic Core Facility. The trimmed samples were aligned to the reference genome using STAR. Gene expression quantification was achieved using feature Counts. Following QC, 8 and 7 samples from in vitro and in vivo studies respectively were identified as outliers and were excluded from subsequent analysis. RUVseq was used to remove hidden batch effect and/or other unwanted variations.
Read counts were analyzed for differential expression using the R package DESeq2. DESeq2 uses the raw read counts, applies an internal normalization method, and does estimation of library size, estimation of dispersion, and negative binomial generalized linear model fitting. The resulting differentially expressed gene lists (adjusted p-value cutoff=0.05) were then analyzed using Metascape to find the enriched terms.
RNA sequence analysis (RNAseq) was performed on tumor samples from mice sacrificed 72 hours after doxorubicin i.t. treatment (corresponding to group E and F at the 72 hr timepoint in Example 1).

[4] = test system: Yumm 1.7 cells; experiment: Metastasis, tumor weight and spleen weight, Yumm1.7 model (Example 3); assay type: in vivo, C57Bl6 mice; conditions: average on the day of sacrifice
Experimental: Spleens were weighed and prepared for Cytof (cut into pieces of 2 mm and frozen in FBS 90%, DMSO 10% and stored at −80° C. prior to dissociation).
Tumors were weighed and cut in 3 along the long axis, one third was snap frozen in liquid nitrogen in 2 cryotubes per tumor, another third was prepared for Cytof (Cut into pieces of 2 mm and frozen in FBS 90%, DMSO 10% and stored at −80C prior to dissociation). The last piece was fixed in 4% formalin for 24 hours at room temperature and stored in 70% ethanol at 4° C. until embedding in paraffin.

[5] = test system: 4T1 mammary carcinoma cells; experiment: 4T1 syngeneic mammary carcinoma model, tumor growth and survival (Example 1); conditions: 4T1 model; for Effect on mouse survival: without the CPI treatment, 500 mm^3
Excerpt: Exponentially growing 4T1 mammary carcinoma cells were harvested and re-suspended at 4×10^6 per ml in the mixture of serum-free RPMI medium and Matrigel (1:1). Only cells with over 95% viability have been used for in vivo study.
Each animal was weighed before cell implantation. Mice were anesthetized by inhalation of Sevoflurane. Anesthesia was induced at 8% Sevoflurane and maintained at 4%. Every mouse was placed on a heating pad and appropriately marked. Under a suitable depth of unconsciousness, animals were shaved, and the skin and surrounding region washed with Chlorhexidine (1 mg/ml) with use of sterile gauze. Injection was done orthotopically with one tumor per mouse with 0.05 ml of approximately 2×10^5 4T1 cells in serum-free RPMI medium/Matrigel (1:1).
2 randomizations were performed on 150 mice in 30 cages, with 5 animals per cage. The first randomization was performed on day 11 post implantation. The average of tumor volume of animals in each cage was determined. The average tumor volume in the cages was from 3.8 mm^3 to 19.7 mm^3. […] The first randomization was conducted with Latin square method based on the average tumor volume of all animals in each cage. […] Once the average tumor size reached 70 mm^3 for vehicle treated animals and 76 mm^3 for bemcentinib treated animals (tumor volume=L×W×W/2) the second randomization was performed prior to injection of chemotherapeutic agent (doxorubicin) on day 16. Randomization 2 was conducted with Latin square method based on average tumor volume of all animals in the bemcentinib group and in the vehicle group from randomization 1. […]
Tumor growth was measured with a digital hand held caliper at least twice weekly (once tumor emerges), prior to the first dosing, and then on the day of euthanasia.
When tumors reached an average of 7-170 mm^3, each animal received Doxorubicin (Dox) at a concentration of 0.5 mg/ml (groups C,D,F and H) in a total volume of 50 ul×TV/120 as indicated in Table 1. […] Total drug dose was calculated based on each animal's individual tumor size. […]

SMILES	Lung macro metastasis ([1]; listed as Bem + PBS + Igg)	Average spleen weight [1] [g]	Average tumor weight [1] [g]	Expression of IFN type I related genes [2]	GO terms significantly downregulated compared to control (number) [3]	GO terms significantly upregulated compared to control (number) [3]	Interferon response (gene ontology) compared to control [3]	Spleen weight [4] [g]	Median survival (tumor volume 1000 mm^3) ([5]; days until tumor 1000 mm^3 or sacrifice due to severe symptoms) [days]	Effect on mouse survival [5]	Lung macro metastasis ([1]; listed as Vehicle + Dox + Igg)	Interferon and immune response (gene ontology) compared to bern only group [3]
Nc1nc(Nc2ccc3c(c2)CC[C@@H](N2CCCC2)CC3)nn1-c1cc2c(nn1)-c1ccccc1CCC2 [Bemcentinib, bemcentinib]	6 and 10+ (2×) and 5 (3×) and 0 and 4 and 2 and 10	0.9333	1.556	only a few upregulated genes	20	2	downregulated	0.10	34.5	do not show any effect	–	–
COc1cccc2c1C(=O)c1c(O)c3c(c(O)c1C2=O)C[C@@](O)(C(=O)CO)C[C@@H]3O[C@H]1C[C@H](N)[C@H](O)[C@H](C)O1 [Doxorubicin, doxorubicin]	–	1.16	1.51	increase of expression	–	1	No Interferon response	0.17	–	do not show any effect	10+ (2×) and 6 and 3 and 0 (2×) and 4 (2×) and 5	upregulated
